Legend:
Lolium rigidum [1] = test: Herbicidal activity against Lolium rigidum accession A04 assessed as fresh weight reduction applied at 4 times pre-emergence recommended rate relative to untreated control; assay type: functional; set-up: scale not given: the % may be the effect or the level left
Lolium rigidum [2] = test: Herbicidal activity against Lolium rigidum accession A01 assessed as fresh weight reduction applied at 4 times pre-emergence recommended rate relative to untreated control; assay type: functional; set-up: scale not given: the % may be the effect or the level left
Lolium rigidum [3] = test: Herbicidal activity against Lolium rigidum accession A03 assessed as fresh weight reduction applied at 1 times pre-emergence recommended rate applied in pots where terbufos had been incorporated into the soil relative to untreated control; assay type: functional; set-up: scale not given: the % may be the effect or the level left
Acetolactate synthase [4] = target: Acetolactate synthase (Lolium rigidum, UniProt A7XBP7, P197L); test: Inhibition of acetolactate synthase Pro-197/Leu-197 mutant in Lolium rigidum accession A07 leaves extracts by acetolactate production assay; conditions: read-out: I50
[5] = target: T1, Acetolactate synthase (Lolium rigidum) (UniProt A7XBP7); test: Resistance index, ratio of I50 for acetolactate synthase Ser-197/Ser-197 mutant in Lolium rigidum accession A21 leaves extracts to I50 for acetolactate synthase in Lolium rigidum accession A01 leaves extracts
T1 sequence (whole entry): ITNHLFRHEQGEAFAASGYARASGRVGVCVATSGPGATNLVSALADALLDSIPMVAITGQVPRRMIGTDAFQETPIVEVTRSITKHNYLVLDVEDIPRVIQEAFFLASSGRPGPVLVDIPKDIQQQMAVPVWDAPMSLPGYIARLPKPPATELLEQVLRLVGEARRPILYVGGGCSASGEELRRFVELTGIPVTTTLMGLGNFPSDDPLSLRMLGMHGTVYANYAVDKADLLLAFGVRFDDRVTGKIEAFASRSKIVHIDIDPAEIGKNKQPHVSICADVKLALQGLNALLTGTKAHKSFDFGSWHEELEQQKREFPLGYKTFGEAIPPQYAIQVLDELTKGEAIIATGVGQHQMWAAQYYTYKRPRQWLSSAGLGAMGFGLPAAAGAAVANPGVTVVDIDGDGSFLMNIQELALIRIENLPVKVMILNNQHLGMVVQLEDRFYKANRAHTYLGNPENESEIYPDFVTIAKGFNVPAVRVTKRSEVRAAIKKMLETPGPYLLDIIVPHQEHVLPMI

Lolium rigidum [6] = test: Herbicidal activity against Lolium rigidum accession A08 assessed as fresh weight reduction applied at 1 times pre-emergence recommended rate applied in pots where terbufos had been incorporated into the soil relative to untreated control; assay type: functional; set-up: scale not given: the % may be the effect or the level left
Lolium rigidum [7] = test: Herbicidal activity against Lolium rigidum accession A07 assessed as fresh weight reduction applied at 1 times pre-emergence recommended rate applied in pots where terbufos had been incorporated into the soil relative to untreated control; assay type: functional; set-up: scale not given: the % may be the effect or the level left
Acetolactate synthase [8] = target: T2, Acetolactate synthase (Lolium rigidum, UniProt A7XBP7); test: Inhibition of acetolactate synthase Pro-197/Pro-197 mutant in Lolium rigidum accession A09 leaves extracts by acetolactate production assay; conditions: read-out: I50
Acetolactate synthase [9] = target: T2, Acetolactate synthase; test: Inhibition of acetolactate synthase Leu-197/Leu-197 mutant in Lolium rigidum accession A08 leaves extracts by acetolactate production assay; conditions: read-out: I50
Lolium rigidum [10] = test: Herbicidal activity against Lolium rigidum accession A08 assessed as fresh weight reduction applied at 4 times pre-emergence recommended rate relative to untreated control; assay type: functional; set-up: scale not given: the % may be the effect or the level left
Lolium rigidum [11] = test: Herbicidal activity against Lolium rigidum accession A10 assessed as emergence rate applied at 1 times pre-emergence recommended rate applied in pots where terbufos had been incorporated into the soil relative to untreated control; assay type: functional
Lolium rigidum [12] = test: Herbicidal activity against Lolium rigidum accession A02 assessed as emergence rate applied at 4 times pre-emergence recommended rate relative to untreated control; assay type: functional
Lolium rigidum [13] = test: Herbicidal activity against Lolium rigidum accession A15 assessed as fresh weight reduction applied at 4 times pre-emergence recommended rate relative to untreated control; assay type: functional; set-up: scale not given: the % may be the effect or the level left
Lolium rigidum [14] = test: Herbicidal activity against Lolium rigidum accession A07 assessed as fresh weight reduction applied at 4 times pre-emergence recommended rate relative to untreated control; assay type: functional; set-up: scale not given: the % may be the effect or the level left
Lolium rigidum [15] = test: Herbicidal activity against Lolium rigidum accession A14 assessed as fresh weight reduction applied at 1 times pre-emergence recommended rate relative to untreated control; assay type: functional; set-up: scale not given: the % may be the effect or the level left
Lolium rigidum [16] = test: Herbicidal activity against Lolium rigidum accession A01 assessed as emergence rate applied at 1 times pre-emergence recommended rate relative to untreated control; assay type: functional
Lolium rigidum [17] = test: Herbicidal activity against Lolium rigidum accession A05 assessed as fresh weight reduction applied at 4 times pre-emergence recommended rate relative to untreated control; assay type: functional; set-up: scale not given: the % may be the effect or the level left
Lolium rigidum [18] = test: Herbicidal activity against Lolium rigidum accession A08 assessed as emergence rate applied at 1 times pre-emergence recommended rate relative to untreated control; assay type: functional
Lolium rigidum [19] = test: Herbicidal activity against Lolium rigidum accession A09 assessed as fresh weight reduction applied at 1 times pre-emergence recommended rate applied in pots where terbufos had been incorporated into the soil relative to untreated control; assay type: functional; set-up: scale not given: the % may be the effect or the level left
Lolium rigidum [20] = test: Herbicidal activity against Lolium rigidum accession A06 assessed as fresh weight reduction applied at 1 times pre-emergence recommended rate relative to untreated control; assay type: functional; set-up: scale not given: the % may be the effect or the level left
Acetolactate synthase [21] = target: T2, Acetolactate synthase; test: Inhibition of acetolactate synthase Ala-197/Ala-197 mutant in Lolium rigidum accession A05 leaves extracts by acetolactate production assay; conditions: read-out: I50
[22] = target: T1, Acetolactate synthase (Lolium rigidum); test: Resistance index, ratio of I50 for acetolactate synthase Ala-197/Ala-197 mutant in Lolium rigidum accession A05 leaves extracts to I50 for acetolactate synthase in Lolium rigidum accession A01 leaves extracts
Lolium rigidum [23] = test: Herbicidal activity against Lolium rigidum accession A13 assessed as fresh weight reduction applied at 1 times pre-emergence recommended rate relative to untreated control; assay type: functional; set-up: scale not given: the % may be the effect or the level left
Lolium rigidum [24] = test: Herbicidal activity against Lolium rigidum accession A07 assessed as emergence rate applied at 1 times pre-emergence recommended rate relative to untreated control; assay type: functional
Lolium rigidum [25] = test: Herbicidal activity against Lolium rigidum accession A14 assessed as emergence rate applied at 1 times pre-emergence recommended rate applied in pots where terbufos had been incorporated into the soil relative to untreated control; assay type: functional
Lolium rigidum [26] = test: Herbicidal activity against Lolium rigidum accession A05 assessed as fresh weight reduction applied at 1 times pre-emergence recommended rate applied in pots where terbufos had been incorporated into the soil relative to untreated control; assay type: functional; set-up: scale not given: the % may be the effect or the level left
Lolium rigidum [27] = test: Herbicidal activity against Lolium rigidum accession A13 assessed as emergence rate applied at 1 times pre-emergence recommended rate applied in pots where terbufos had been incorporated into the soil relative to untreated control; assay type: functional
Lolium rigidum [28] = test: Herbicidal activity against Lolium rigidum accession A01 assessed as emergence rate applied at 1 times pre-emergence recommended rate applied in pots where terbufos had been incorporated into the soil relative to untreated control; assay type: functional
Lolium rigidum [29] = test: Herbicidal activity against Lolium rigidum accession A03 assessed as fresh weight reduction applied at 4 times pre-emergence recommended rate relative to untreated control; assay type: functional; set-up: scale not given: the % may be the effect or the level left
Lolium rigidum [30] = test: Herbicidal activity against Lolium rigidum accession A14 assessed as emergence rate applied at 1 times pre-emergence recommended rate relative to untreated control; assay type: functional
[31] = target: T1, Acetolactate synthase (Lolium rigidum); test: Resistance index, ratio of I50 for acetolactate synthase Ala-197/Ala-197 mutant in Lolium rigidum accession A19 leaves extracts to I50 for acetolactate synthase in Lolium rigidum accession A01 leaves extracts
Lolium rigidum [32] = test: Herbicidal activity against Lolium rigidum accession A11 assessed as emergence rate applied at 1 times pre-emergence recommended rate relative to untreated control; assay type: functional
Lolium rigidum [33] = test: Herbicidal activity against Lolium rigidum accession A09 assessed as emergence rate applied at 1 times pre-emergence recommended rate applied in pots where terbufos had been incorporated into the soil relative to untreated control; assay type: functional
Lolium rigidum [34] = test: Herbicidal activity against Lolium rigidum accession A05 assessed as emergence rate applied at 1 times pre-emergence recommended rate relative to untreated control; assay type: functional

SMILES: COc1nc(C)nc(NC(=O)NS(=O)(=O)c2ccccc2Cl)n1 [CHLORSULFURON]
- Activity (Lolium rigidum [1]): 95%
- Activity (Lolium rigidum [2]): 99%
- Activity (Lolium rigidum [3]): 99%
- IC50 (Acetolactate synthase [4]): 1.82 µM
- Ratio [5]: 53
- Activity (Lolium rigidum [6]): 5%
- Activity (Lolium rigidum [7]): 1%
- IC50 (Acetolactate synthase [8]): 0.03 µM
- IC50 (Acetolactate synthase [9]): 16.9 µM
- Activity (Lolium rigidum [10]): 46%
- Activity (Lolium rigidum [11]): 3%
- Activity (Lolium rigidum [12]): 1%
- Activity (Lolium rigidum [13]): 98%
- Activity (Lolium rigidum [14]): 49%
- Activity (Lolium rigidum [15]): 94%
- Activity (Lolium rigidum [16]): 2%
- Activity (Lolium rigidum [17]): 2%
- Activity (Lolium rigidum [18]): 88%
- Activity (Lolium rigidum [19]): 94%
- Activity (Lolium rigidum [20]): 0%
- IC50 (Acetolactate synthase [21]): 4.89 µM
- Ratio [22]: 163
- Activity (Lolium rigidum [23]): 98%
- Activity (Lolium rigidum [24]): 89%
- Activity (Lolium rigidum [25]): 1%
- Activity (Lolium rigidum [26]): 0%
- Activity (Lolium rigidum [27]): 0%
- Activity (Lolium rigidum [28]): 1%
- Activity (Lolium rigidum [29]): 91%
- Activity (Lolium rigidum [30]): 1%
- Ratio [31]: 620
- Activity (Lolium rigidum [32]): 42%
- Activity (Lolium rigidum [33]): 3%
- Activity (Lolium rigidum [34]): 97%
